Test results as given in PubChem BioAssay (NCI).
“And” between values parts separate entries of the source, which are not always exact repeats. Equal entries are not always repeated.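 Five concentrations, 48 hours, 96-well plates. GI50 marks 50% less growth. TGI marks complete inhibition of growth.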

What follows are molecules tested on HL-60(TB) leukemia (assay: NCI-60 cell line screen, 48 h).
With `c1ccc(Sc2ccc(Cc3nc4cc5ccccc5cc4[nH]3)cc2)cc1` the GI50 was 76.4 µM and the TGI was greater than 100 µM.
Work on `CCc1nc2cc(F)c(/C=C/C(=O)NO)cc2c(=O)n1CCc1ccccc1` yielded a GI50 of 0.415 µM and a TGI greater than 100 µM.
In the case of `C/C(=N\Nc1ccc(Cl)cn1)c1ccc2ccccc2n1`, the GI50 is reported as 2.18 µM and the TGI is reported as 8.95 µM.
`CC1=C(/C=C/Cl)CC(Cl)C(C)(Cl)C1` (stereo unspecified) was tested, and the TGI was 60.5 µM.
In the case of `C=C1C(=O)O[C@H]2[C@H]1CC/C(COC(=O)NCCCCNC(=O)OC/C1=C/CC[C@@]3(C)O[C@H]3[C@H]3OC(=O)C(=C)[C@@H]3CC1)=C\CC[C@@]1(C)O[C@@H]21`, the GI50 is reported as 0.256 µM and the TGI is reported as 1.08 µM.
`COc1ccc(C[N+](C)(C)N)cc1OC` was tested, and the GI50 was greater than 100 µM and the TGI was greater than 100 µM.
`NS(=O)(=O)c1ccc(-c2ccc3c(NC(=O)C4CC4)n[nH]c3c2)cc1` was tested, and the GI50 was greater than 25 µM and the TGI was greater than 25 µM.
`C=CCCCCC/C=C\[C@@H](O)C#CC#C/C=C/CO` gave a GI50 of 11.2 µM and a TGI of 27.8 µM.
Molecule `Cc1cc(C(=O)Nc2ccc3cc(CN4CCOCC4)ccc3n2)c(C)n1-c1ccccc1` has a GI50 of 1.71 µM and a TGI of 5.06 µM.
In the case of `CCCCCCCCCCCCCCCC(=O)OCC(C[As](=O)(O)O)OC(=O)CCCCCCCCCCCCCCC` (stereo unspecified), the TGI is reported as greater than 100 µM.
`COc1ccc(C(=O)c2cc(C)c(OC)c(C)c2)cc1OC(=O)CCl` showed a GI50 of less than 0.01 µM and a TGI of less than 0.01 µM.
`NC(=O)c1cc(Cl)ccc1NC(=O)/C=C/c1ccccc1` gave a GI50 of 1.28 µM and a TGI of 4.4 µM.
`O=C1/C(=C(/c2ccccc2)N2CCOCC2)Cc2ccccc21` was tested, and the GI50 was 0.235 µM and the TGI was 0.485 µM.
`CC1=CC(=O)C=CC1=O` was tested, and the GI50 was 2.37 µM and 3.51 µM.
With `CCCC(CCC)NCC(O)c1cc(-c2ccc(C(F)(F)F)cc2)nc(C(F)(F)F)c1` (stereo unspecified) the GI50 was 2.11 µM and the TGI was 3.97 µM.
`Cc1cc(C)c(NC(=O)c2sc3nc4c(cc3c2N)C(=O)CCC4)c(C)c1` gave a GI50 of 3.64 µM and a TGI greater than 100 µM.
In the case of `CN(C)CCNc1ccc(CO)c2oc3ccc(O)cc3c(=O)c12`, the TGI is reported as 30.9 µM.
`Cc1ccc(NC(=O)c2cccc(C(C)(C)C#N)c2)cc1Nc1ccc2ncn(C)c(=O)c2c1` gave a GI50 of 0.0547 µM and a TGI of 13.9 µM.
`Cc1cc2ncnn2cc1Nc1ncc2c(n1)n(C1CCOCC1)c(=O)n2C` gave a GI50 of 23.3 µM and a TGI greater than 100 µM.
With `COc1cc(Cc2nccc3cc(OC)c(OC)cc23)c(C(C)=O)cc1OC` the GI50 was greater than 750 µM and the TGI was 130 µM and > 750 µM.

The molecules below were run on OVCAR-4 ovarian (assay: NCI-60 cell line screen, 48 h).
In the case of `CC1(C)C(=O)/C(=C\c2cccnc2)C[C@]2(C)[C@H]3CC[C@@H]4[C@H]5[C@H](C(=O)/C=C/c6cccnc6)CC[C@]5(C(=O)O)CC[C@@]4(C)[C@]3(C)CC[C@@H]12`, the GI50 is reported as 4.37 µM and the TGI is reported as greater than 100 µM.
Molecule `COc1cc2ncnc(-n3ncc4cc(NC(=O)Nc5ccccc5)ccc43)c2cc1OC` has a GI50 of 1.01 µM and a TGI of 4.26 µM.
Molecule `COc1ccc(C(=O)c2cc(OC)c(OC)c(OC)c2)cc1/C=C/C(=O)c1ccc(F)cc1` has a GI50 of 4.55 µM and a TGI of 33.6 µM.
Work on `OCC1OC(n2cnc3c2NC=NC[C@H]3O)C(Cl)C1O` (stereo partly specified) yielded a TGI greater than 100 µM.
`COc1ccc(C2=C(Cl)c3cc(OC)c(OC)cc3C2Cl)cc1` (stereo unspecified) showed a TGI of 35.4 µM.
Molecule `COc1ccc(-c2[nH]c3ccc(OC)cc3c2/C=C(\C#N)S(=O)(=O)c2ccccc2)cc1` has a GI50 of 2.09 µM and a TGI greater than 100 µM.
Molecule `O=c1cc(NCC(O)CN2CCCC2)n(Cc2ccccc2)c(=O)n1Cc1ccccc1` (stereo unspecified) has a GI50 of 58.3 µM and a TGI greater than 100 µM.
Work on `c1ccc(Sc2ccc(Cc3nc4cc5ccccc5cc4[nH]3)cc2)cc1` yielded a GI50 of 57.5 µM and a TGI greater than 100 µM.
`CCc1nc2cc(F)c(/C=C/C(=O)NO)cc2c(=O)n1CCc1ccccc1` showed a GI50 of 0.314 µM and a TGI of 14.9 µM.
In the case of `C/C(=N\Nc1ccc(Cl)cn1)c1ccc2ccccc2n1`, the GI50 is reported as 1.52 µM and the TGI is reported as greater than 100 µM.
In the case of `CC1=C(/C=C/Cl)CC(Cl)C(C)(Cl)C1` (stereo unspecified), the TGI is reported as greater than 100 µM.
`C=C1C(=O)O[C@H]2[C@H]1CC/C(COC(=O)NCCCCNC(=O)OC/C1=C/CC[C@@]3(C)O[C@H]3[C@H]3OC(=O)C(=C)[C@@H]3CC1)=C\CC[C@@]1(C)O[C@@H]21` was tested, and the GI50 was 1.77 µM and the TGI was 8.53 µM.
Work on `COc1ccc(C[N+](C)(C)N)cc1OC` yielded a GI50 greater than 100 µM and a TGI greater than 100 µM.
For `NS(=O)(=O)c1ccc(-c2ccc3c(NC(=O)C4CC4)n[nH]c3c2)cc1`, the GI50 was greater than 25 µM and the TGI was greater than 25 µM.
